Values of other authors as cited in PMC6500982 (Cancer Science, 2019).
Like-named read-outs stand apart in the source and are kept apart here.

Tested on: ABC DLBCL tumors
Conditions: cited from earlier work

C=CC(=O)N1CCC[C@@H](n2nc(-c3ccc(Oc4ccccc4)cc3)c3c(N)ncnc32)C1 [ibrutinib]
Patients who responded to treatment (ABC tumors with B‐cell receptor mutations who also had MYD88 mutations): 80% | Patients who responded to treatment (ABC tumors with B‐cell receptor mutations): 55.5%
